{"source": "patent US5028596A", "about": "“1-(β-D-arabinofuranosyl)-5-propynyluracil for treatment of VZV infections” (Burroughs Wellcome Co., priority 1987, dated 1991)", "key": {"[1]": {"test_system": "vaccinia and herpes simplex", "conditions": "in vitro, literature; cited from earlier work"}, "[2]": {"assay": "Cell growth inhibition assay (cell toxicity, tetrazolium dye uptake)", "format": "cell-based", "conditions": "monkey; Vero cells; 50% inhibition of cell viability at 96 hours; read-out: CCID50 at 96 hr.", "protocol": "Cell toxicity is assessed in a cell growth inhibition assay. Subconfluent cultures of Vero cells grown on 96-well microtiter dishes are exposed to different dilutions of drug, and cell viability determined daily on replicate cultures using uptake of a tetrazolium dye (MIT). The concentration required for a 50% inhibition of cell viability at 96 hours is termed CCID50."}, "[3]": {"test_system": "Varicella zoster virus (VZV)", "assay": "VZV plaque reduction assay in MRC5 cells (without agarose overlay)", "format": "cell-based", "protocol": "(§1) Human cytomegalovirus (HCMV) is assayed in monolayers of either MRC5 cells (human embryonic lung) or Detroit 532 cells (human foreskin fibroblasts) in multiwell trays. Activity of compounds is determined in the plaque reduction assay, in which a cell monolayer is infected with a suspension of HCMV, and then overlaid with nutrient agarose in the form of a gel to ensure that there is no spread of virus throughout the culture. A range of concentrations of compound of known molarity was incorporated in the nutrient agarose overlay. Plaque numbers of each concentration are expressed as percentage of the control and dose-response curve is drawn. From this curve the 50% inhibitory concentration (IC50) is estimated. Varicella zoster virus (VZV) is assayed in MRC5 cells by a similar method of that of MCMV with the omission of the agarose overlay."}, "[4]": {"test_system": "Human cytomegalovirus (HCMV)", "assay": "HCMV plaque reduction assay in MRC5 or Detroit 532 cells", "format": "cell-based", "protocol": "as §1, with “estimated.” for “estimated. Varicella zoster virus (VZV) is assayed in MRC5 cells by a similar method of that of MCMV with the omission of the agarose overlay.”"}}, "note": "pIC50: −log10 of the molar value.", "data": [{"smiles": "C#Cc1cn([C@H]2C[C@H](O)[C@@H](CO)O2)c(=O)[nH]c1=O", "note": "[2'-deoxy-5-ethynyluridine]", "values": [{"measurement": "antiviral activity against vaccinia and herpes simplex (in words)", "setting": "[1]", "result": "did not demonstrate any effect of use in human medicinal chemotherapy"}]}, {"smiles": "CC#Cc1cn([C@H]2C[C@H](O)[C@@H](CO)O2)c(=O)[nH]c1=O", "note": "[Example 1, 2'-Deoxy-5-propynyluridine]", "values": [{"measurement": "CC50 at 96 h", "setting": "[2]", "result": "> 500", "unit": "µM"}, {"measurement": "pIC50", "setting": "[3]; Human alphaherpesvirus 3, MRC5, MRC5 cells, plaque reduction", "result": 6.00}, {"measurement": "activity against VZV (in words)", "setting": "[3]; qualitative statement", "result": "potent anti-VZV activity"}, {"measurement": "pIC50", "setting": "[4]; Human betaherpesvirus 5, MRC5, MRC5 or Detroit 532 cells, plaque reduction", "result": "< 4.80"}]}, {"smiles": "C#Cc1cn([C@H]2C[C@H](OC(C)=O)[C@@H](COC(C)=O)O2)c(=O)nc1N", "note": "[Example 2, 2'-Deoxy-3',5'-di-O-acetyl-5-ethynylcytidine]", "values": [{"measurement": "CC50 at 96 h", "setting": "[2]", "result": "> 500", "unit": "µM"}]}, {"smiles": "C#Cc1cn([C@H]2C[C@H](O)[C@@H](CO)O2)c(=O)nc1N", "note": "[Example 3, 2'-Deoxy-5-ethynylcytidine]", "values": [{"measurement": "activity against CMV (in words)", "setting": "[4]; qualitative statement", "result": "high activity against CMV"}]}]}
